The target of one assay is VEGFR-2 kinase (Homo sapiens (Human), UniProt P35968). The assay can be described thus: Assay of small molecular compounds for inhibiting the activity of VEGFR-2 kinase (LANCE TR-FRET). It counts as biochemical. The settings on record: read-out: VEGFR2 IC50. In outline:
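LANCE TR-FRET with human VEGFR-2 (2× stock 0.5 nM) preincubated 30 min with compound (final 2500 to 0.042 nM, 11-point 3-fold), then ULight-JAK-1 (Tyr1023) peptide/ATP added (4× stocks 200 nM/40 μM). Reaction 60 min room temperature, 4% DMSO; IC50 from inhibition-rate curve.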

The next assay concerns Ba/F3 LMNA-NTRK1 cells. The assay can be described thus: Assay for inhibiting the proliferation of Ba/F3 LMNA-NTRK1 cells (CCK-8). It counts as cell-based. To be noted: Mus musculus, BaF3. In outline: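 Viability was read as absorbance at 450 nm following 1–2 h CCK-8 incubation at 37 °C, relative to control and blank wells.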
The next assay has as its target c-MET kinase (Homo sapiens (Human), UniProt P08581). The assay can be described thus: Assay of small molecular compounds for inhibiting the activity of c-MET kinase (LANCE TR-FRET). It counts as biochemical. The settings on record: read-out: CMET IC50. In outline:
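Eleven final concentrations from 2500 nM down to 0.042 nM, in 4% DMSO, were tested against human c-MET (2× stock 2 nM), with compound and enzyme premixed for 5 min. The phosphorylation reaction used 4× stock of 400 nM ULight-JAK-1 peptide and 40 μM ATP for 60 min at room temperature, then stop and detection steps. TR-FRET percent inhibition against positive and negative controls gave the IC50.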

pIC50: −log10 of the molar value.

Chain of VEGFR-2 kinase (P35968 20-1356): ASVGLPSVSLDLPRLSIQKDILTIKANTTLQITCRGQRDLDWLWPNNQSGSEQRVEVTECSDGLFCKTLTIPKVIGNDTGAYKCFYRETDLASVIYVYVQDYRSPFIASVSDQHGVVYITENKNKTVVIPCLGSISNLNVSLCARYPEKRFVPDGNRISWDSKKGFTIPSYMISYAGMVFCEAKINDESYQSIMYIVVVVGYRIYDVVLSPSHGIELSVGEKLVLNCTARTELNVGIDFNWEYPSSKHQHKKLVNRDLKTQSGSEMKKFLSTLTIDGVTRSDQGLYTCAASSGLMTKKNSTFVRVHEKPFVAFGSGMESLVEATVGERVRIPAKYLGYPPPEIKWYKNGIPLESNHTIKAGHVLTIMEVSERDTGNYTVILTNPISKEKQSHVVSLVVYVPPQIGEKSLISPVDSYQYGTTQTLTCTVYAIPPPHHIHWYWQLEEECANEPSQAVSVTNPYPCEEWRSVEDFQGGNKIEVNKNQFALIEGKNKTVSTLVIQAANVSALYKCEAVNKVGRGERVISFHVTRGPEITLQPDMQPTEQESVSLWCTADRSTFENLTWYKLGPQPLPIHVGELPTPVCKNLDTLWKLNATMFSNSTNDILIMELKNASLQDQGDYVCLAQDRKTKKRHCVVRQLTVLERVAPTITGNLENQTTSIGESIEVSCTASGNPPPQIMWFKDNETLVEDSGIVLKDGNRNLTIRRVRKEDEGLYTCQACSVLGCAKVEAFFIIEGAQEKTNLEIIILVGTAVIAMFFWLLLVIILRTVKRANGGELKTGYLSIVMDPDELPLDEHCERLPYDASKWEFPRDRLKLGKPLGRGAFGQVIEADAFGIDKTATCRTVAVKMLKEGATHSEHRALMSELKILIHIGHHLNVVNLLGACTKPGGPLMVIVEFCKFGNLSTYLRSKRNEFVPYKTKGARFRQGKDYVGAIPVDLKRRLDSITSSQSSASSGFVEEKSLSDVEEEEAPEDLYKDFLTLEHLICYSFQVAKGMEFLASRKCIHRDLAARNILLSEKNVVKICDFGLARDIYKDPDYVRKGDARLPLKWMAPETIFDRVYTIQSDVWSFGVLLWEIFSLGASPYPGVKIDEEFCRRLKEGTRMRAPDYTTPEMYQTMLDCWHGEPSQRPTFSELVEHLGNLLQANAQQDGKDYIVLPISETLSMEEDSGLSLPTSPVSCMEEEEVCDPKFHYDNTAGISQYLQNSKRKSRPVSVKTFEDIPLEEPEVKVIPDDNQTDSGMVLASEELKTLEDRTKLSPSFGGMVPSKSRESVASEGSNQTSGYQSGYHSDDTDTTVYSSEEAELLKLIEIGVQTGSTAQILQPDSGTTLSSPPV
Chain of c-MET kinase (P08581 25-1390): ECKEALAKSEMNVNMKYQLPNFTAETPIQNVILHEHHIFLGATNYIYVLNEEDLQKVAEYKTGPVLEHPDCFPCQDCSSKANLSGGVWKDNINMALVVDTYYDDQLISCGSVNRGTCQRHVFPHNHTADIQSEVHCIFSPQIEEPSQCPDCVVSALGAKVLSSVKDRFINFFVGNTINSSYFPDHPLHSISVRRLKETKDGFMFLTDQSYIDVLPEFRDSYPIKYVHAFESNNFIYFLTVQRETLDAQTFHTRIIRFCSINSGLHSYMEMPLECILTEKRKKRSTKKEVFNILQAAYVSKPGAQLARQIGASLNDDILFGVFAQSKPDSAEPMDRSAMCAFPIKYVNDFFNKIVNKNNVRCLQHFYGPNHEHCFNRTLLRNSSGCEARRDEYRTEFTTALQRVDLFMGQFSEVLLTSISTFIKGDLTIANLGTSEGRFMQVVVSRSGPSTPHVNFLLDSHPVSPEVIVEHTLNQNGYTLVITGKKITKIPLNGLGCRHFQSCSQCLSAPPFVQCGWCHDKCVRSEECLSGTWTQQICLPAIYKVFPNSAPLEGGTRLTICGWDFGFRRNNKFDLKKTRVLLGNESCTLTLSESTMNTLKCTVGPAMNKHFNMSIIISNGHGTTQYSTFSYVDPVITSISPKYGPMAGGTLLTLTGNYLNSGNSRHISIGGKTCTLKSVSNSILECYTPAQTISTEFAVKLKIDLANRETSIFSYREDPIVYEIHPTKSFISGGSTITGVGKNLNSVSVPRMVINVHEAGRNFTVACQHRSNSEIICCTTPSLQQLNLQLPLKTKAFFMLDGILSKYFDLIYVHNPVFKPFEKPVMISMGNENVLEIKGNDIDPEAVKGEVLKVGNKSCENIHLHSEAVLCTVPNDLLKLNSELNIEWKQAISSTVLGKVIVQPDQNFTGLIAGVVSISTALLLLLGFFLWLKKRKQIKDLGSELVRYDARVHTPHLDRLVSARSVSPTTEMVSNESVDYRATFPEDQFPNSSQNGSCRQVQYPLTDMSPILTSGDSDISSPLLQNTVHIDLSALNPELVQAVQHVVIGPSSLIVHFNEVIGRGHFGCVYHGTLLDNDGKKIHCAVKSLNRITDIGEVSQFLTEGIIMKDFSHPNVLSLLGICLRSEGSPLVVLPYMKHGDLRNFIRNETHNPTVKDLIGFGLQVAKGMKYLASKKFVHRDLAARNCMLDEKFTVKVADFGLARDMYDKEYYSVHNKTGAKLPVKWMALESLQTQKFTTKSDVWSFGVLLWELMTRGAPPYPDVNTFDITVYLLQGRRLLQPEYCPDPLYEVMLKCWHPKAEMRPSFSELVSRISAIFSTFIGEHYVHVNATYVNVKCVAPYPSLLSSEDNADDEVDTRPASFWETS

As for `CCOc1ccn(-c2ccc(F)cc2)c(=O)c1C(=O)Nc1ccc(Oc2ccnc3cc(OCCCN4CCC(C)(N)CC4)c4c(c23)OCCO4)c(F)c1` [Example 68, N-(4-((5-(3-(4-amino-4-methylpiperidin-1-yl)propoxy)-2,3-dihydro-[1,4]dioxino[2,3-f]quinolin-10-yl)oxy)-3-fluorophenyl)-4-ethoxy-1-(4-fluorophenyl)-2-oxo-1,2-dihydropyridine-3-carboxamide], the pIC50 is at least 7.30 on VEGFR-2 kinase, 6.00 to 6.70 in the assay with Ba/F3 LMNA-NTRK1 cells and at least 7.30 at c-MET kinase.
On to `CCOc1ccn(-c2ccc(F)cc2)c(=O)c1C(=O)Nc1ccc(Oc2ccnc3cc(OCCCN4CCC(C)(O)CC4)c4c(c23)OCCO4)c(F)c1` [Example 69, N-(4-((5-(3-(4-hydroxy-4-methylpiperidin-1-yl)propoxy)-2,3-dihydro-[1,4]dioxino[2,3-f]quinolin-10-yl)oxy)-3-fluorophenyl)-4-ethoxy-1-(4-fluorophenyl)-2-oxo-1,2-dihydropyridine-3-carboxamide], for which the pIC50 was at least 7.30 at VEGFR-2 kinase, over 7.30 with Ba/F3 LMNA-NTRK1 cells and at least 7.30 at c-MET kinase.
Regarding `CCOc1ccn(-c2ccc(F)cc2)c(=O)c1C(=O)Nc1ccc(Oc2ccnc3cc(OCCCN(C)CCOC)c4c(c23)OCCO4)c(F)c1` [Example 70, N-(4-((5-(3-((2-methoxyethyl)(methyl)amino)propoxy)-2,3-dihydro-[1,4]dioxino[2,3-f]quinolin-10-yl)oxy)-3-fluorophenyl)-4-ethoxy-1-(4-fluorophenyl)-2-oxo-1,2-dihydropyridine-3-carboxamide], the pIC50 on VEGFR-2 kinase was at least 7.30; in the assay on Ba/F3 LMNA-NTRK1 cells it was over 7.30; on c-MET kinase, at least 7.30.
Take `CCOc1ccn(-c2ccc(F)cc2)c(=O)c1C(=O)Nc1ccc(Oc2ccnc3cc(OCCCN(C)C4CCC4)c4c(c23)OCCO4)c(F)c1` [Example 71, N-(4-((5-(3-(cyclobutyl(methyl)amino)propoxy)-2,3-dihydro-[1,4]dioxino[2,3-f]quinolin-10-yl)oxy)-3-fluorophenyl)-4-ethoxy-1-(4-fluorophenyl)-2-oxo-1,2-dihydropyridine-3-carboxamide]: the pIC50 at VEGFR-2 kinase was at least 7.30; with Ba/F3 LMNA-NTRK1 cells, over 7.30; at c-MET kinase, at least 7.30.
For `CCOc1ccn(-c2ccc(F)cc2)c(=O)c1C(=O)Nc1ccc(Oc2ccnc3cc(OCCCN4CCOCC4)c4c(c23)OCCO4)c(Cl)c1` [Example 72, N-(4-((5-(3-morpholinopropoxy)-2,3-dihydro-[1,4]dioxino[2,3-f]quinolin-10-yl)oxy)-3-chlorophenyl)-4-ethoxy-1-(4-fluorophenyl)-2-oxo-1,2-dihydropyridine-3-carboxamide], the pIC50 at VEGFR-2 kinase is at least 7.30; with Ba/F3 LMNA-NTRK1 cells it was over 7.30; at c-MET kinase it was at least 7.30.
For the compound `CCOc1ccn(-c2ccc(F)cc2)c(=O)c1C(=O)Nc1ccc(Oc2ccnc3cc(OCCCN4CCOCC4)c4c(c23)OCCO4)cc1Cl` [Example 73, N-(2-chloro-4-((5-(3-morpholinopropoxy)-2,3-dihydro-[1,4]dioxino[2,3-f]quinolin-10-yl)oxy)phenyl)-4-ethoxy-1-(4-fluorophenyl)-2-oxo-1,2-dihydropyridine-3-carboxamide], the negative-log IC50 (pIC50) at VEGFR-2 kinase was 6.30 to 7.30; with Ba/F3 LMNA-NTRK1 cells, over 7.30; on c-MET kinase, at least 7.30.
For the compound `CN1CCN(CCCOc2cc3nccc(Oc4ccc(NC(=O)c5cn(C)c(=O)n(-c6ccc(F)cc6)c5=O)cc4F)c3c3c2OCCO3)CC1` [Example 74, N-(3-fluoro-4-((5-(3-(4-methylpiperazin-1-yl)propoxy)-2,3-dihydro-[1,4]dioxino[2,3-f]quinolin-10-yl)oxy)phenyl)-3-(4-fluorophenyl)-1-methyl-2,4-dioxo-1,2,3,4-tetrahydropyrimidine-5-carboxamide], the pIC50 on VEGFR-2 kinase was at least 7.30; with Ba/F3 LMNA-NTRK1 cells, over 7.30; at c-MET kinase it was at least 7.30.
For `CC(C)n1cc(C(=O)Nc2ccc(Oc3ccnc4cc(OCCCN5CCS(=O)(=O)CC5)c5c(c34)OCCO5)c(F)c2)c(=O)n(-c2ccc(F)cc2)c1=O` [Example 76, N-(3-fluoro-4-((5-(3-(1,1-dioxidothiomorpholino)propoxy)-2,3-dihydro-[1,4]dioxino[2,3-f]quinolin-10-yl)oxy)phenyl)-3-(4-fluorophenyl)-1-isopropyl-2,4-dioxo-1,2,3,4-tetrahydropyrimidine-5-carboxamide], the pIC50 at VEGFR-2 kinase is 5.30 to 6.30; in the assay with Ba/F3 LMNA-NTRK1 cells, over 7.30; at c-MET kinase, 6.30 to 7.30.
For `CC(C)n1cc(C(=O)Nc2ccc(Oc3ccnc4cc(OCCCN5CCCC5)c5c(c34)OCCO5)c(F)c2)c(=O)n(-c2ccc(F)cc2)c1=O` [Example 77, N-(3-fluoro-4-((5-(3-(pyrrolidin-1-yl)propoxy)-2,3-dihydro-[1,4]dioxino[2,3-f]quinolin-10-yl)oxy)phenyl)-3-(4-fluorophenyl)-1-isopropyl-2,4-dioxo-1,2,3,4-tetrahydropyrimidine-5-carboxamide], in that order: 6.30 to 7.30, over 7.30 and at least 7.30.
For `CC(C)n1cc(C(=O)Nc2ccc(Oc3ccnc4cc(OCCO)c5c(c34)OCCO5)c(F)c2)c(=O)n(-c2ccc(F)cc2)c1=O` [Example 78, N-(3-fluoro-4-((5-(2-hydroxyethoxy)-2,3-dihydro-[1,4]dioxino[2,3-f]quinolin-10-yl)oxy)phenyl)-3-(4-fluorophenyl)-1-isopropyl-2,4-dioxo-1,2,3,4-tetrahydropyrimidine-5-carboxamide], in that order: 5.30 to 6.30, over 7.30 and at least 7.30.
The corresponding values for `COCCCOc1cc2nccc(Oc3ccc(NC(=O)c4cn(C)c(=O)n(-c5ccc(F)cc5)c4=O)cc3F)c2c2c1OCCO2` [Example 80, N-(3-fluoro-4-((5-(3-methoxypropoxy)-2,3-dihydro-[1,4]dioxino[2,3-f]quinolin-10-yl)oxy)phenyl)-3-(4-fluorophenyl)-1-methyl-2,4-dioxo-1,2,3,4-tetrahydropyrimidine-5-carboxamide] are 5.30 to 6.30, over 7.30 and at least 7.30.
Take `Cn1cc(C(=O)Nc2ccc(Oc3ccnc4cc(OC5CCOC5)c5c(c34)OCCO5)c(F)c2)c(=O)n(-c2ccc(F)cc2)c1=O` (stereo not drawn) [Example 90, N-(3-fluoro-4-((5-((tetrahydrofuran-3-yl)oxy)-2,3-dihydro-[1,4]dioxino[2,3-f]quinolin-10-yl)oxy)phenyl)-3-(4-fluorophenyl)-1-methyl-2,4-dioxo-1,2,3,4-tetrahydropyrimidine-5-carboxamide]: the pIC50 at VEGFR-2 kinase was 6.30 to 7.30; in the assay with Ba/F3 LMNA-NTRK1 cells, over 7.30; at c-MET kinase, at least 7.30.
The corresponding values for `Cn1cc(C(=O)Nc2ccc(Oc3ccnc4cc(OC5CCOCC5)c5c(c34)OCCO5)c(F)c2)c(=O)n(-c2ccc(F)cc2)c1=O` [Example 91, N-(3-fluoro-4-((5-((tetrahydropyran-4-yl)oxy)-2,3-dihydro-[1,4]dioxino[2,3-f]quinolin-10-yl)oxy)phenyl)-3-(4-fluorophenyl)-1-methyl-2,4-dioxo-1,2,3,4-tetrahydropyrimidine-5-carboxamide] are 6.30 to 7.30, over 7.30 and at least 7.30.
The corresponding values for `CC(C)n1cc(C(=O)Nc2ccc(Oc3ccnc4cc(OCCCN5CCC(C)(C)CC5)c5c(c34)OCCO5)c(F)c2)c(=O)n(-c2ccc(F)cc2)c1=O` [Example 92, N-(3-fluoro-4-((5-(3-(4,4-dimethylpiperidin-1-yl)propoxy)-2,3-dihydro-[1,4]dioxino[2,3-f]quinolin-10-yl)oxy)phenyl)-3-(4-fluorophenyl)-1-isopropyl-2,4-dioxo-1,2,3,4-tetrahydropyrimidine-5-carboxamide] are 5.30 to 6.30, 6.70 to 7.30 and 6.30 to 7.30.
The corresponding values for `CC(C)n1cc(C(=O)Nc2ccc(Oc3ccnc4cc(OCCCN5CCC(C)(N)CC5)c5c(c34)OCCO5)c(F)c2)c(=O)n(-c2ccc(F)cc2)c1=O` [Example 93, N-(3-fluoro-4-((5-(3-(4-amino-4-methylpiperidin-1-yl)propoxy)-2,3-dihydro-[1,4]dioxino[2,3-f]quinolin-10-yl)oxy)phenyl)-3-(4-fluorophenyl)-1-isopropyl-2,4-dioxo-1,2,3,4-tetrahydropyrimidine-5-carboxamide] are 6.30 to 7.30, 6.00 to 6.70 and at least 7.30.

These data come from patent US12202835B2, “Substituted aromatic ring-linked dioxinoquinazolines and dioxinoquinolines as kinase inhibitors” (BEIJING SCITECH-MQ PHARMACEUTICALS LIMITED, priority 2018, dated 2025).
